Laboratory results from patent publication US9873690B2, “3-indol substituted derivatives, pharmaceutical compositions and methods for use” (Pfizer Inc., priority 2015, dated 2018).
pIC50: −log10 of the molar value.

target: T1, hTDO2 (Homo sapiens, UniProt P48775); assay: Cellular assay for TDO2 activity determination in A172 cells; format: cell-based; conditions: human glioblastoma A172 cells naturally expressing hTDO2; overnight incubation; kynurenine by absorbance at 480 nm
T1 construct: endogenous in cells; host or cells: A172 human brain glioblastoma cells (ATCC CRL-1620)
Protocol: The compounds of formula I inhibit the activity of human TDO2 in cells that constitutively express TDO2, such as A172 cells. A172 is a cell line derived from human brain glioblastoma cells. The cells are available from the American Type Culture Collection (ATCC®) as CRL-1620™.
The assay (adapted from Pilotte L et al., Proc Natl Acad Sci USA, 2012, 109(7), 2497-502) was performed in 96-well flat bottom plates seeded with human glioblastoma A172 cells, naturally expressing hTDO2 (prepared as described in Tilman et al., Mol Cancer, 2007, 17(6), 80), at a concentration of 1.25×10^4 cells/well in a final volume of 200 μL. To determine TDO, the cells were incubated overnight at 37° C. at 5% CO2 in IMDM (Invitrogen) supplemented with 2% FBS and 2% penicillin/streptomycin in the presence of the compounds of the present invention, at different concentrations.
The plates were then centrifuged 5 min at 1000 rpm, and 100 μL of the supernatant were collected in a conical plate, 30 μL of TCA 30% were added and a further centrifuged at 3000×g for 10 minutes. 100 μL of the supernatant were collected in a flat bottomed plate and 100 μL of 2% (w/v) 4-(dimethylamino)-benzaldehyde in acetic acid and incubated for 5 min at room temperature. Kynurenine concentrations were determined by measuring the absorbance at 480 nm. A standard curve was made with pure kynurenine. The TDO activity was measured as described above using ten serial concentrations of the compounds of the present invention. Data were fitted using the Prism™ software (GraphPad Software, Inc.) using standard parameters.
The biological activity of representative compounds in human brain glioblastoma cells as determined in the above-referenced assay is summarized in the following table: […]

T1 sequence (P48775 whole entry): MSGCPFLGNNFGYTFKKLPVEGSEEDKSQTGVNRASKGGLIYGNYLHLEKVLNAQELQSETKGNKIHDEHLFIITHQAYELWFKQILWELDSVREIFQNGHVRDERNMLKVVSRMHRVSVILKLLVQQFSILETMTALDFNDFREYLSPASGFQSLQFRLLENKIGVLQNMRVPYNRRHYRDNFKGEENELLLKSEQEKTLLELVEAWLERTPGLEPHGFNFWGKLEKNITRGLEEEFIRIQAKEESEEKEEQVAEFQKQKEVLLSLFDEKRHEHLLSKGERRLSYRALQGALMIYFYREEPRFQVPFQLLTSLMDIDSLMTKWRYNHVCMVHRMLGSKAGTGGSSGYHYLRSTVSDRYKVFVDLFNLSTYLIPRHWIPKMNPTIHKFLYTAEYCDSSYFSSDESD

| pIC50 | SMILES |
| --- | --- |
| 6.46 | CCOC(=O)NCCN1C(C)c2cc(-c3c[nH]c4cc(F)ccc34)ccc2S1(=O)=O (single isomer, unassigned; (-)) [Example 109, (−)-ethyl (2-(5-(6-fluoro-1H-indol-3-yl)-3-methyl-1,1-dioxidobenzo[d]isothiazol-2(3H)-yl)ethyl)carbamate] |
| 6.95 | Cn1cnc(CN2C(CO)c3cc(-c4c[nH]c5cc(F)ccc45)ccc3S2(=O)=O)n1 (single isomer, unassigned; (+)) [Example 130, (+)-5-(6-fluoro-1H-indol-3-yl)-3-(hydroxymethyl)-2-((1-methyl-1H-1,2,4-triazol-3-yl)methyl)-2,3-dihydrobenzo[d]isothiazole 1,1-dioxide] |
| 7.21 | CC1c2cc(-c3c[nH]c4cc(F)ccc34)ccc2S(=O)(=O)N1CC[S+](C)[O-] (single isomer, unassigned; (-)) [Example 57, (−)-5-(6-fluoro-1H-indol-3-yl)-3-methyl-2-(2-(methylsulfinyl)ethyl)-2,3-dihydrobenzo[d]isothiazole 1,1-dioxide] |
| 7.24 | CC1c2cc(-c3c[nH]c4cc(F)ccc34)ccc2S(=O)(=O)N1Cc1ncn(C)n1 (single isomer, unassigned; (-)) [Example 85, (−)-5-(6-fluoro-1H-indol-3-yl)-3-methyl-2-((1-methyl-1H-1,2,4-triazol-3-yl)methyl)-2,3-dihydrobenzo[d]isothiazole 1,1-dioxide] |
| 7.33 | CC(C)C1NS(=O)(=O)c2ccc(-c3c[nH]c4cc(F)ccc34)cc21 (single isomer, unassigned; (+)) [Example 8, (+)-5-(6-fluoro-1H-indol-3-yl)-3-isopropyl-2,3-dihydrobenzo[d]isothiazole 1,1-dioxide] |
| 6.63 | O=S1(=O)NC2(CC2)c2cc(-c3c[nH]c4cc(F)ccc34)ccc21 [Example 136, 5-(6-fluoro-1H-indol-3-yl)-2H-spiro[benzo[d]-isothiazole-3,1′-cyclopropane] 1,1-dioxide] |
| 6.26 | CC1c2cc(-c3c[nH]c4cc(F)ccc34)ccc2S(=O)(=O)N1CCN1CCNCC1=O (single isomer, unassigned; (-)) [Example 65, (−)1-(2-(5-(6-fluoro-1H-indol-3-yl)-3-methyl-1,1-dioxidobenzo[d]isothiazol-2(3H)-yl)ethyl)piperazin-2-one] |
| 7.02 | CC1(C)NS(=O)(=O)c2ccc(-c3c[nH]c4cc(F)ccc34)cc21 [Example 5, 5-(6-fluoro-1H-indol-3-yl)-3,3-dimethyl-2,3-dihydrobenzo[d]isothiazole 1,1-dioxide] |
| 6.49 | CC1c2cc(-c3c[nH]c4cc(F)ccc34)ccc2S(=O)(=O)N1CCO (single isomer, unassigned; (-)) [Example 64, (−)-5-(6-fluoro-1H-indol-3-yl)-2-(2-hydroxyethyl)-3-methyl-2,3-dihydrobenzo[d]isothiazole 1,1-dioxide] |
| 7.06 | CC1c2cc(-c3c[nH]c4cc(F)ccc34)ccc2S(=O)(=O)N1CC(N)=O (single isomer, unassigned; (+)) [Example 115] |
| 6.74 | CC1=NS(=O)(=O)c2ccc(-c3c[nH]c4cc(F)ccc34)cc21 [Example 135, 5-(6-fluoro-1H-indol-3-yl)-3-methylbenzo[d]isothiazole 1,1-dioxide] |
| 6.91 | O=S1(=O)c2ccc(-c3c[nH]c4cc(F)ccc34)cc2C(CO)N1CC(O)CO (single isomer, unassigned; (-)) [Example 142, (−)-2-(2,3-dihydroxypropyl)-5-(6-fluoro-1H-indol-3-yl)-3-(hydroxymethyl)-2,3-dihydrobenzo[d]isothiazole 1,1-dioxide] |
| 6.37 | NCC1NS(=O)(=O)c2ccc(-c3c[nH]c4cc(F)ccc34)cc21 (single isomer, unassigned; (-)) [Example 20, (−)-3-(aminomethyl)-5-(6-fluoro-1H-indol-3-yl)-2,3-dihydrobenzo[d]isothiazole 1,1-dioxide] |
| 7.05 | O=S1(=O)c2ccc(-c3c[nH]c4cc(F)ccc34)cc2CN1CCO [Example 33, 5-(6-fluoro-1H-indol-3-yl)-2-(2-hydroxyethyl)-2,3-dihydrobenzo[d]isothiazole 1,1-dioxide] |
| 6.99 | O=S1(=O)NC(C2CC2)c2cc(-c3c[nH]c4cc(F)ccc34)ccc21 (single isomer, unassigned; (-)) [Example 11, (−)-3-cyclopropyl-5-(6-fluoro-1H-indol-3-yl)-2,3-dihydrobenzo[d]isothiazole 1,1-dioxide] |
| 6.30 | CC1c2cc(-c3c[nH]c4cc(F)ccc34)ccc2S(=O)(=O)N1C1CNC(=O)C1 (single isomer, unassigned; (+)) [Example 123, (+)4-(5-(6-fluoro-1H-indol-3-yl)-3-methyl-1,1-dioxidobenzo[d]isothiazol-2(3H)-yl)pyrrolidin-2-one] |
| 6.61 | CC1c2cc(-c3c[nH]c4cc(F)ccc34)ccc2S(=O)(=O)N1CCN1CCNCC1=O (single isomer, unassigned; (+)) [Example 66, (+)1-(2-(5-(6-fluoro-1H-indol-3-yl)-3-methyl-1,1-dioxidobenzo[d]isothiazol-2(3H)-yl)ethyl)piperazin-2-one] |
| 6.58 | CC1c2cc(-c3c[nH]c4cc(F)ccc34)ccc2S(=O)(=O)N1CCN1CCOC1=O (single isomer, unassigned; (+)) [Example 69, (+)-3-(2-(5-(6-fluoro-1H-indol-3-yl)-3-methyl-1,1-dioxidobenzo[d]isothiazol-2(3H)-yl)ethyl)oxazolidin-2-one] |
| 7.12 | CC1c2cc(-c3c[nH]c4cc(F)ccc34)ccc2S(=O)(=O)N1CC[S+](C)[O-] (single isomer, unassigned; (+)) [Example 55, (+)-5-(6-fluoro-1H-indol-3-yl)-3-methyl-2-(2-(methylsulfinyl)ethyl)-2,3-dihydrobenzo[d]isothiazole 1,1-dioxide] |
| 6.30 | CC1c2cc(-c3c[nH]c4cc(F)ccc34)ccc2S(=O)(=O)N1C1CNC(=O)C1 (single isomer, unassigned; (-)) [Example 125, (−)-4-(5-(6-fluoro-1H-indol-3-yl)-3-methyl-1,1-dioxido-benzo[d]isothiazol-2(3H)-yl)pyrrolidin-2-one] |
| 6.51 | NCC1NS(=O)(=O)c2ccc(-c3c[nH]c4cc(F)ccc34)cc21 (single isomer, unassigned; (+)) [Example 19, (+)-3-(aminomethyl)-5-(6-fluoro-1H-indol-3-yl)-2,3-dihydrobenzo[d]isothiazole 1,1-dioxide] |
| 6.72 | O=S1(=O)c2ccc(-c3c[nH]c4cc(F)ccc34)cc2C(CO)N1CC(O)CO (single isomer, unassigned; (+)) [Example 144, (+)-2-(2,3-dihydroxypropyl)-5-(6-fluoro-1H-indol-3-yl)-3-(hydroxymethyl)-2,3-dihydrobenzo[d]isothiazole 1,1-dioxide] |
| 7.21 | CC1c2cc(-c3c[nH]c4cc(F)ccc34)ccc2S(=O)(=O)N1C[C@]1(C)CCC(=O)N1 (single isomer, unassigned; (+)) [Example 82] |
| 7.41 | CC1c2cc(-c3c[nH]c4cc(F)ccc34)ccc2S(=O)(=O)N1C[C@@H](O)CO (single isomer, unassigned; (+)) [Example 94] |
| 7.06 | CNC(=O)CN1C(CO)c2cc(-c3c[nH]c4cc(F)ccc34)ccc2S1(=O)=O (single isomer, unassigned; (-)) [Example 127, (−)-2-(5-(6-fluoro-1H-indol-3-yl)-3-(hydroxymethyl)-1,1-dioxidobenzo[d]isothiazol-2(3H)-yl)-N-methylacetamide] |
| 5.00 | CNC(=O)C1NS(=O)(=O)c2ccc(-c3c[nH]c4cc(F)ccc34)cc21 (single isomer, unassigned; (-)) [Example 17, (−)-5-(6-fluoro-1H-indol-3-yl)-N-methyl-2,3-dihydrobenzo[d]isothiazole-3-carboxamide 1,1-dioxide] |
| 7.17 | CC1c2cc(-c3c[nH]c4cc(F)ccc34)ccc2S(=O)(=O)N1CCS(N)(=O)=O (single isomer, unassigned; (-)) [Example 62, (−)-2-(5-(6-fluoro-1H-indol-3-yl)-3-methyl-1,1-dioxidobenzo[d]-isothiazol-2(3H)-yl)ethane-1-sulfonamide] |
| 6.87 | CNC(=O)CCN1Cc2cc(-c3c[nH]c4cc(F)ccc34)ccc2S1(=O)=O [Example 43, 3-(5-(6-fluoro-1H-indol-3-yl)-1,1-dioxidobenzo[d]isothiazol-2(3H)-yl)-N-methylpropanamide] |
| 7.27 | CC1c2cc(-c3c[nH]c4cc(F)ccc34)ccc2S(=O)(=O)N1C1CCNC(=O)C1 (single isomer, unassigned; (-)) [Example 122, (−)-4-(-5-(6-fluoro-1H-indol-3-yl)-3-methyl-1,1-dioxidobenzo[d]isothiazol-2(3H)-yl)piperidin-2-one] |
